Biological target: T1, gastrin (CCK2) receptors (Rattus norvegicus, UniProt P30553)
T1 construct: The stomach was excised and flushed with ca. 1 ml of unbuffered physiological saline solution; from tissue; host or cells: isolated, lumen-perfused stomach of immature rats (33-50 g, ca. 21 days old)
T1 sequence (P30553 1-452): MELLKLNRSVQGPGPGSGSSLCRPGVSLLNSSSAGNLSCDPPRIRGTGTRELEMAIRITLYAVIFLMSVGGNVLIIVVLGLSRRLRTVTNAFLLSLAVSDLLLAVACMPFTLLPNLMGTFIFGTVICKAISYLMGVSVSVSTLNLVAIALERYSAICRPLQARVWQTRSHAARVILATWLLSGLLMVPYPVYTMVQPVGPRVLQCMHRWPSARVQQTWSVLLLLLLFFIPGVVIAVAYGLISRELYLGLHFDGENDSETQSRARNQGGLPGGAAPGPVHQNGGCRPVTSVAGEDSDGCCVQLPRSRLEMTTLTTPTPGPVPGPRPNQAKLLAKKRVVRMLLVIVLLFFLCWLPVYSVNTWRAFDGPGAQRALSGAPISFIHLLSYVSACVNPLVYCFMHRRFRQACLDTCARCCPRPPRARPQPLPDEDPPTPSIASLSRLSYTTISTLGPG
Experiment: immature rat stomach assay, gastrin (CCK2) antagonist activity against pentagastrin-stimulated acid secretion
Assay type: cell-based
Settings: isolated immature rat stomach, pentagastrin dose-response curves, 60 min after drug addition; for Kb: read-out: Rat Stomach pKB (converted)
Description: The compounds of the examples were tested for gastrin (CCK2) antagonist activity in an immature rat stomach assay. The procedure was as follows:
The oesophagus of immature rats (33-50 g, ca. 21 days old) was ligated at the level of the cardiac sphincter and the duodenal sphincter was cannulated. The stomach was excised and flushed with ca. 1 ml of unbuffered physiological saline solution. The fundus was punctured and cannulated. A further 4-5 ml of unbuffered solution was flushed through the stomach to ensure the preparation was not leaking. The stomach was lowered into a jacketed organ bath containing 40 ml of buffered solution containing 3×10^−8 M 5-methylfurmethide, maintained at 37° and gassed vigorously with 95% O2/5% CO2. The stomach was continuously perfused at a rate of 1 ml min^−1 with unbuffered solution gassed with 100% O2 with the perfusate passing over an internally referenced pH-electrode fixed 12 cm above the stomach.
After 120 min of stabilisation the drugs were added directly to the serosal solution in the organ bath and after a further 60 min cumulative pentagastrin dose-response curves were started. Changes in acid secretion were monitored and the curves analysed according to Black et al., Br. J. Pharmacol., 1985, 86, 581.

Kb [nM]	Molecule	Rat Stomach pKB
30.9	O=C(O)c1cccc(NC(=O)c2c(COC34CC5CC(CC(C5)C3)C4)nn(C3CCCCC3)c2O)c1 [Example 4, 3-{[3-(Adamantan-1-yloxymethyl)-1-cyclohexyl-5-hydroxyl-1H-pyrazole-4-carbonyl]-amino}-benzoic acid]	
170	COc1c(C(=O)Nc2cccc(C(=O)O)c2)c(COC23CC4CC(CC(C4)C2)C3)nn1C1CCCCC1 [Example 5, 3-{[3-(Adamantan-1-yloxymethyl)-1-cyclohexyl-5-methoxy-1H-pyrazole-4-carbonyl]-amino}-benzoic acid]	

Second part, the molecule before the results:

Molecule	Kb [nM]	Rat Stomach pKB
3-{[3-(Adamantan-1-yloxymethyl)-3-phenyl-1-o-tolyl-1H-pyrazole-4-carbonyl]-amino}-benzoic acid [Example 2]		5.66 ± 0.24
Cc1ccccc1-n1nc(COC23CC4CC(CC(C4)C2)C3)c(C(=O)Nc2cccc(C(=O)O)c2)c1O [Example 3, 3-{[3-(Adamantan-1-yloxymethyl)-5-hydroxy-1-o-tolyl-1H-pyrazole-4-carbonyl]-amino}-benzoic acid]	19.1	
Cn1c(COC23CC4CC(CC(C4)C2)C3)c(C(=O)Nc2cccc(C(=O)O)c2)c(=O)n1C1CCCCC1 [Example 6, 3-{[5-(Adamantan-1-yloxymethyl)-2-cyclohexyl-1-methyl-3-oxo-2,3-dihydro-1H-pyrazole-4-carbonyl]-amino}-benzoic acid]	269	

— patent publication US6956053B2, “Pyrazole derivatives and their use as gastrin and cholecystokin receptor ligands” (The James Black Foundation Limited, priority 2000, dated 2005)
